23 compounds from US20240327381A1, “Compounds and Compositions for Selective Degradation of Engineered Proteins” (Celgene Corporation, priority 2023, published 2024) can be followed below.

The target of one assay is T1, Helios (Homo sapiens, UniProt Q9UKS7).
T1 construct: endogenous in cells; host or cells: Jurkat cells, CRISPR/Cas9 knock-in of HiBit at the IKZF2 locus
Description: Helios degradation in Jurkat/Helios/HiBit cells (Nano-Glo luminescence). In kind it is cell-based. To be noted: 18 hr, read-out: Helios Jurkat Hibit IC50. An outline of the steps: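 Jurkat cells carrying CRISPR-knocked-in C-terminal HiBit-tagged endogenous IKZF2 were treated with compound in DMEM/10% FCS (10,000 cells/well) for 18 h at 37 °C. HiBit signal was read by Nano-Glo luminescence after 30 min at RT. EC50 for degradation came from a four-parameter logistic fit, with Ymax as % protein degraded.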

Assay [1] addresses T2, IKZF1 ZNF2_ZNF3 Q1F degron-tagged CD19 CAR (Homo sapiens, UniProt Q13422, Q146F).
T2 construct: ZNF2_ZNF3 Q1F degron (GERPFFCNQCGASFTQKGNLLRHIKLHSGEKPFKCHLCNYACRRRDALTGHLRTHS); fused on or other part: anti-CD19 scFv, CD28 transmembrane domain, 4-1BB costimulatory domain, CD3 zeta signaling domain (the CAR that carries the degron), and Nluc
Description: Degradation of Q1F degron-tagged CD19 CAR in Jurkat cells (flow cytometry of CAR levels). In kind it is cell-based. The conditions noted are these: for DC50: Jurkat cells expressing CD19 CAR tagged with IKZF1 ZNF2_ZNF3 Q1F, 18 hours at 37° C., CAR levels normalized to untreated cells, read-out: Q1F Jurkat IC50; for Dmax: Ymax is the % protein degraded, Jurkat cells expressing Q1F degron-tagged CD19 CAR, 18 hours, read-out: Q1F Jurkat-YMax. An outline of the steps:
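Jurkat cells were lentivirally transduced with an anti-CD19 scFv/CD28 TM/4-1BB/CD3ζ CAR tagged with an IKZF1 ZNF2_ZNF3 Q1F degron–Nluc, then treated with compound titrations for 18 h at 37 °C. CAR surface levels were stained (20 min, 4 °C), read by flow cytometry and normalised to untreated cells. EC50 came from a four-parameter logistic fit; Ymin is the minimum % CAR remaining.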

Bounds are passed on as bounds.

T2 sequence (Q13422 whole entry Q146F, the tested form may be a part): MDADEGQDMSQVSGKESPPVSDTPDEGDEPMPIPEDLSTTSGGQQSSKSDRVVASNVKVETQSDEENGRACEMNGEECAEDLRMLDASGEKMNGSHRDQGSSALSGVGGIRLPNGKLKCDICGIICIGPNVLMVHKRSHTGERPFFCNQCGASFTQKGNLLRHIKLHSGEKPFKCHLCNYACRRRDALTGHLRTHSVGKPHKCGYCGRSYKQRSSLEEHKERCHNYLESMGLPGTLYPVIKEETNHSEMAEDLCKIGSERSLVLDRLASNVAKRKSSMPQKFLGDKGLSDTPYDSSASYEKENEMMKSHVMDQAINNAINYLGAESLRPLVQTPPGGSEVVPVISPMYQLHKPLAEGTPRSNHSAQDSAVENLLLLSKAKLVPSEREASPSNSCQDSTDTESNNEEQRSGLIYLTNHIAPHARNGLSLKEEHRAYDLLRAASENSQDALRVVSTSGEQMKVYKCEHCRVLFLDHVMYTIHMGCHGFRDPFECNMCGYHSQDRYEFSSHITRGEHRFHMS
T1 sequence (Q9UKS7 whole entry): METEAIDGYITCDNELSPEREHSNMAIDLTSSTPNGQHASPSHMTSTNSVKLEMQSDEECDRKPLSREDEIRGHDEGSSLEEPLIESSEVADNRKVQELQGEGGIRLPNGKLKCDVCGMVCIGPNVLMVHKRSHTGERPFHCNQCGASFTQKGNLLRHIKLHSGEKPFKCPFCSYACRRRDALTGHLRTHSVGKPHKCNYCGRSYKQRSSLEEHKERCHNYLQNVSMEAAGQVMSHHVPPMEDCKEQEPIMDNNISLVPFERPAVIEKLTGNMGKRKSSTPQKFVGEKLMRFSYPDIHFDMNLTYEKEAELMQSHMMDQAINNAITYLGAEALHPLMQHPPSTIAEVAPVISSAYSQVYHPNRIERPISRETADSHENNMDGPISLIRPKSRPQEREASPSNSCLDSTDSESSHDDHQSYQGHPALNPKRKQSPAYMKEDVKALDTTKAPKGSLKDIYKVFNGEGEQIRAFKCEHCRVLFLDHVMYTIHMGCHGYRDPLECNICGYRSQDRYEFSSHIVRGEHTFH
T1 sequence (Q96SW2 whole entry, further chain): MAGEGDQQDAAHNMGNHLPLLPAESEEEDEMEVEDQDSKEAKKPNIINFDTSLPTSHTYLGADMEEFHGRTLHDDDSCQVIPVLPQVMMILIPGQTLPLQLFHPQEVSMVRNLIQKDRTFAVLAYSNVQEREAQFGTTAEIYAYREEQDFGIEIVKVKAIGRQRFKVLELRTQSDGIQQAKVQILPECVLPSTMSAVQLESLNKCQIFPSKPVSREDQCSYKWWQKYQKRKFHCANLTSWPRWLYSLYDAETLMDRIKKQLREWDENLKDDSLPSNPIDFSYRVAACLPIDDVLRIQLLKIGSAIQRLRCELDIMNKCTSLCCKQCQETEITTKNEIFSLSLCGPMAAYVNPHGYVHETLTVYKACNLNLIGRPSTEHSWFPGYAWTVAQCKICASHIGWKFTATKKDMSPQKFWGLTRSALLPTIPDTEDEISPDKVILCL
T1 sequence (Q16531 whole entry partner): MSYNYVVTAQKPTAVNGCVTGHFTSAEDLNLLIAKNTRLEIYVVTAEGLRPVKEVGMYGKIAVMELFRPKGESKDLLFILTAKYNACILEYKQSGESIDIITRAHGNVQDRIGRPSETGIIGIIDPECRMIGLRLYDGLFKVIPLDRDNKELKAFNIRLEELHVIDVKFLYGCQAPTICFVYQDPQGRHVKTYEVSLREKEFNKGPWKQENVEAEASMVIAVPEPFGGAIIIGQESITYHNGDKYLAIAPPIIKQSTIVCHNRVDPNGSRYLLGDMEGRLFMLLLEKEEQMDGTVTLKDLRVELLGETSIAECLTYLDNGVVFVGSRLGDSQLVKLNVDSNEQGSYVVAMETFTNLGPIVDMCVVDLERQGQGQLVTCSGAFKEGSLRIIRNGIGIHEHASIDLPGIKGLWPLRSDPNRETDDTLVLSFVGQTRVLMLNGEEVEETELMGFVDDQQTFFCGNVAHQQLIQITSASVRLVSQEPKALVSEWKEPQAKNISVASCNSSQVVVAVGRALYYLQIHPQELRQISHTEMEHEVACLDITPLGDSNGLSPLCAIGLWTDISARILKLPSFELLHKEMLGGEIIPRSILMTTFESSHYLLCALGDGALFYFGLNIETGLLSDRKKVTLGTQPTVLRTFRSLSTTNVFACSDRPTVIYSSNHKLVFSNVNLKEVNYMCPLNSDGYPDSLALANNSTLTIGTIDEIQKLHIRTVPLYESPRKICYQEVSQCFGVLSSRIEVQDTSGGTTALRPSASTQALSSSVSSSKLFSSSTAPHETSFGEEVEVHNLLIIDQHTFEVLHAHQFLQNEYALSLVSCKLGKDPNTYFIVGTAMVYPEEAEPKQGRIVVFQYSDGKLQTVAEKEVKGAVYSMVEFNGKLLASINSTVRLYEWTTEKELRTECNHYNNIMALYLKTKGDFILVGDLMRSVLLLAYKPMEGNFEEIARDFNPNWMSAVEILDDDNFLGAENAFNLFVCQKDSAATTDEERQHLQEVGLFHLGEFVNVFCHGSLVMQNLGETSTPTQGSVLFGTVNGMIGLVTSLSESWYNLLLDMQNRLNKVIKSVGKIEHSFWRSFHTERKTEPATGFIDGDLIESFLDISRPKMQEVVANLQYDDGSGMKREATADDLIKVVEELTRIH

Take `C[C@@H](CO)CN1CCC(c2c(F)cc3c(c2F)CN(C2CCC(=O)NC2=O)C3=O)CC1` (mixture of isomers) [Compound 119, rac-3-(4,6-difluoro-5-(1-((R)-3-hydroxy-2-methylpropyl)piperidin-4-yl)-1-oxoisoindolin-2-yl)piperidine-2,6-dione]: the DC50 at Helios was ≥ 10000 nM; in assay [1], 8.65 nM. Also, the Dmax in assay [1] was 80.7%.

Regarding `Cc1ccc(CN2CCC(c3cc4c(cc3F)C(=O)N(C3CCC(=O)NC3=O)C4)CC2)cc1` (stereo not drawn) [Compound 84, 3-(6-fluoro-5-(1-(4-methylbenzyl)piperidin-4-yl)-1-oxoisoindolin-2-yl)piperidine-2,6-dione], on Helios, the DC50 was ≥ 10000 nM. Moreover, in assay [1], the DC50 came out at 2.1 nM and the Dmax was 90.3%.

In the case of `O=C1CCC(N2Cc3c(cc(F)c(C4CCN(C5CCC5)CC4)c3F)C2=O)C(=O)N1` (stereo not drawn) [Compound 3, 3-(5-(1-cyclobutylpiperidin-4-yl)-4,6-difluoro-1-oxoisoindolin-2-yl)piperidine-2,6-dione], at Helios, the DC50 was ≥ 10000 nM. Further, in assay [1], the DC50 is 4.37 nM and the Dmax came to 78.7%.

Regarding `Cn1cnc2ccc(CN3CCC(c4c(F)cc5c(c4F)CN(C4CCC(=O)NC4=O)C5=O)CC3)cc21` (stereo not drawn) [Compound 106, 3-(4,6-difluoro-5-(1-((1-methyl-1H-benzo[d]imidazol-6-yl)methyl)piperidin-4-yl)-1-oxoisoindolin-2-yl)piperidine-2,6-dione], the DC50 on Helios is ≥ 10000 nM; in assay [1] it was 0.698 nM. Also, the Dmax in assay [1] came to 91.8%.

On to `CN(CCN1CCC(c2cc3c(cc2F)C(=O)N(C2CCC(=O)NC2=O)C3)CC1)Cc1ccccc1` (stereo not drawn) [Compound 80, 3-(5-(1-(2-(benzyl(methyl)amino)ethyl)piperidin-4-yl)-6-fluoro-1-oxoisoindolin-2-yl)piperidine-2,6-dione], for which, at Helios, the DC50 was ≥ 10000 nM. Moreover, in assay [1], the DC50 worked out at 0.533 nM and the Dmax is 85.1%.

For `CS(=O)(=O)c1ccc(CN2CCC(c3cc4c(cc3F)C(=O)N(C3CCC(=O)NC3=O)C4)CC2)cc1` (stereo not drawn) [Compound 90, 3-(6-fluoro-5-(1-(4-(methylsulfonyl)benzyl)piperidin-4-yl)-1-oxoisoindolin-2-yl)piperidine-2,6-dione], the DC50 is ≥ 10000 nM on Helios and 4.68 nM in assay [1]. Also, in assay [1], the Dmax came out at 93.1%.

As for `O=C1CCC(N2Cc3c(cc(F)c(C4(O)CCN(Cc5ccccc5C(F)(F)F)CC4)c3F)C2=O)C(=O)N1` (stereo not drawn) [Compound 32, 3-(4,6-difluoro-5-(4-hydroxy-1-(2-(trifluoromethyl)benzyl)piperidin-4-yl)-1-oxoisoindolin-2-yl)piperidine-2,6-dione], at Helios, the DC50 was ≥ 10000 nM. Besides, in assay [1], the DC50 was 9.54 nM and the Dmax came to 80.2%.

`O=C1CCC(N2Cc3cc(C4CCN(CC5CCCCC5)CC4)c(F)cc3C2=O)C(=O)N1` (stereo not drawn) [Compound 82, 3-(5-(1-(cyclohexylmethyl)piperidin-4-yl)-6-fluoro-1-oxoisoindolin-2-yl)piperidine-2,6-dione]: the DC50 on Helios is ≥ 10000 nM; in assay [1], 1.72 nM. In assay [1], the Dmax is 88.2%.

Consider `O=C1CCC(N2Cc3c(cc(F)c(C4CCN(Cc5ccc(-n6ccnc6)cc5)CC4)c3F)C2=O)C(=O)N1` (stereo not drawn) [Compound 8, 3-(5-(1-(4-(1H-imidazol-1-yl)benzyl)piperidin-4-yl)-4,6-difluoro-1-oxoisoindolin-2-yl)piperidine-2,6-dione], for which the values for the DC50 (at Helios; in assay [1]) were ≥ 10000 nM and 4.97 nM, respectively. Moreover, the Dmax in assay [1] came to 91.7%.

Take `O=C1CCC(N2Cc3cc(C4(O)CCN(Cc5ccc6ncsc6c5)CC4)c(F)cc3C2=O)C(=O)N1` (stereo not drawn) [Compound 35, 3-(5-(1-(benzo[d]thiazol-6-ylmethyl)-4-hydroxypiperidin-4-yl)-6-fluoro-1-oxoisoindolin-2-yl) piperidine-2,6-dione]: the DC50 at Helios was ≥ 10000 nM. In addition, in assay [1], the DC50 came out at 144 nM and the Dmax was determined as 63.3%.

Turning to `O=C1CCC(N2Cc3c(cc(F)c(C4(O)CCN(Cc5cccc(-n6cccn6)c5)CC4)c3F)C2=O)C(=O)N1` (stereo not drawn) [Compound 15, 3-(5-(1-(3-(1H-pyrazol-1-yl)benzyl)-4-hydroxypiperidin-4-yl)-4,6-difluoro-1-oxoisoindolin-2-yl)piperidine-2,6-dione], at Helios, the DC50 was ≥ 10000 nM. In assay [1], the DC50 was found to be 4.94 nM and the Dmax came to 79.9%.

Consider `CN(C)CCCOc1ccc(CN2CCC(c3c(F)cc4c(c3F)CN(C3CCC(=O)NC3=O)C4=O)CC2)cc1` (stereo not drawn) [Compound 108, 3-(5-(1-(4-(3-(dimethylamino)propoxy)benzyl)piperidin-4-yl)-4,6-difluoro-1-oxoisoindolin-2-yl)piperidine-2,6-dione], for which the DC50 on Helios was ≥ 10000 nM. Further, in assay [1], the DC50 came to 3.66 nM and the Dmax amounted to 83.1%.

Regarding `O=C1CCC(N2Cc3c(cc(F)c(C(=O)N4CCc5cc(F)c(F)cc5C4)c3F)C2=O)C(=O)N1` (stereo not drawn) [Compound 72, 3-[5-(6,7-difluoro-3,4-dihydro-1H-isoquinoline-2-carbonyl)-4,6-difluoro-1-oxo-isoindolin-2-yl]piperidine-2,6-dione], at Helios, the DC50 was ≥ 10000 nM. Further, in assay [1], the DC50 was 21.2 nM and the Dmax amounted to 92.5%.

In the case of `CC(C)CN1CCC(c2c(F)cc3c(c2F)CN(C2CCC(=O)NC2=O)C3=O)CC1` (stereo not drawn) [Compound 95, 3-(4,6-difluoro-5-(1-isobutylpiperidin-4-yl)-1-oxoisoindolin-2-yl)piperidine-2,6-dione], on Helios, the DC50 was ≥ 10000 nM. Also, in assay [1], the DC50 is 10.5 nM and the Dmax came out at 84.5%.

For the compound `O=C1CCC(N2Cc3c(cc(F)c(CNC(=O)c4cc5ccccn5c4)c3F)C2=O)C(=O)N1` (stereo not drawn) [Compound 69, N-[[2-(2,6-dioxo-3-piperidyl)-4,6-difluoro-1-oxo-isoindolin-5-yl]methyl]indolizine-2-carboxamide], the DC50 at Helios was ≥ 10000 nM; in assay [1], 35.2 nM. The Dmax in assay [1] came to 53.9%.

Take `O=C1CCC(N2Cc3c(cc(F)c(C4CCN(Cc5ccc(C(F)(F)F)cc5O)CC4)c3F)C2=O)C(=O)N1` (stereo not drawn) [Compound 55, 3-(4,6-difluoro-5-(1-(2-hydroxy-4-(trifluoromethyl)benzyl)piperidin-4-yl)-1-oxoisoindolin-2-yl)piperidine-2,6-dione]: at Helios, the DC50 is ≥ 10000 nM. Moreover, in assay [1], the DC50 is 0.468 nM and the Dmax amounted to 88.7%.

As for `O=C1CCC(N2Cc3c(cc(F)c(C4CCN(Cc5ccc6scnc6c5)CC4)c3F)C2=O)C(=O)N1` (stereo not drawn) [Compound 54, 3-(5-(1-(benzo[d]thiazol-5-ylmethyl)piperidin-4-yl)-4,6-difluoro-1-oxoisoindolin-2-yl)piperidine-2,6-dione], the DC50 on Helios was ≥ 10000 nM. Also, in assay [1], the DC50 was found to be 0.114 nM and the Dmax amounted to 93.3%.

Regarding `Cc1cc(CN2CCC(c3c(F)cc4c(c3F)CN(C3CCC(=O)NC3=O)C4=O)CC2)on1` (stereo not drawn) [Compound 4, 3-(4,6-difluoro-5-(1-((3-methylisoxazol-5-yl)methyl)piperidin-4-yl)-1-oxoisoindolin-2-yl)piperidine-2,6-dione], the DC50 at Helios was ≥ 10000 nM. Besides, in assay [1], the DC50 stood at 105 nM and the Dmax was found to be 82.3%.

As to `CS(=O)(=O)Nc1cccc(CN2CCC(c3c(F)cc4c(c3F)CN(C3CCC(=O)NC3=O)C4=O)CC2)c1` (stereo not drawn) [Compound 109, N-(3-((4-(2-(2,6-dioxopiperidin-3-yl)-4,6-difluoro-1-oxoisoindolin-5-yl)piperidin-1-yl)methyl)phenyl) methanesulfonamide], the DC50 at Helios is ≥ 10000 nM; in assay [1], 2.28 nM. In addition, the Dmax in assay [1] turned out to be 91.5%.

Turning to `CN(CCN1CCC(c2c(F)cc3c(c2F)CN(C2CCC(=O)NC2=O)C3=O)CC1)Cc1ccccc1` (stereo not drawn) [Compound 65, 3-(5-(1-(2-(benzyl(methyl)amino)ethyl)piperidin-4-yl)-4,6-difluoro-1-oxoisoindolin-2-yl)piperidine-2,6-dione], at Helios, the DC50 is ≥ 10000 nM. In assay [1], the DC50 was 1.09 nM and the Dmax was 85.5%.

For `O=C1CCC(N2Cc3c(cc(F)c(C4CCN(Cc5ccc(C(F)(F)F)cc5)CC4)c3F)C2=O)C(=O)N1` (stereo not drawn) [Compound 52, 3-(4,6-difluoro-1-oxo-5-(1-(4-(trifluoromethyl)benzyl)piperidin-4-yl)isoindolin-2-yl)piperidine-2,6-dione], on Helios, the DC50 is ≥ 10000 nM. In assay [1], the DC50 worked out at 0.91 nM and the Dmax is 91.8%.

As to `O=C1CCC(N2Cc3c(cc(F)c(C4CCN(CCCOc5ccccc5)CC4)c3F)C2=O)C(=O)N1` (stereo not drawn) [Compound 118, 3-(4,6-difluoro-1-oxo-5-(1-(3-phenoxypropyl)piperidin-4-yl)isoindolin-2-yl)piperidine-2,6-dione], the DC50 on Helios was ≥ 10000 nM. Also, in assay [1], the DC50 was 2.86 nM and the Dmax was 83%.

With `O=C1CCC(N2Cc3c(cc(F)c(C4(O)CCN(Cc5n[nH]c6ccccc56)CC4)c3F)C2=O)C(=O)N1` (stereo not drawn) [Compound 41, 3-[4,6-difluoro-5-[4-hydroxy-1-(1H-indazol-3-ylmethyl)-4-piperidyl]-1-oxo-isoindolin-2-yl] piperidine-2,6-dione], on Helios, the DC50 was ≥ 10000 nM. Also, in assay [1], the DC50 turned out to be 95.3 nM and the Dmax came out at 66.2%.
